Measurements from patent publication US8202998B2, “Salts of benzimidazolyl pyridyl ethers and formulations thereof” (Novartis AG, priority 2006, dated 2012).
Each block holds one compound with its values, some of them ahead of it.

Tests used:
[1] = Aqueous solubility of salts in deionized water; settings: for solubility / solubility at 48 h: deionized water, water, thermodynamic from solid; for pH: pH of the saturated aqueous solutions
[2] = Determination of solubility at 25° C.; assay type: physicochemical; settings: for solubility: thermodynamic from solid
Experimental: Excess solids were equilibrated in each solvent for over 24 hours at 25° C.±0.1. Concentration in aqueous supernatant was measured by UV and HPLC and concentrations in organic solvents by gravimetry.

[3] = pH of 1% solution or suspension; assay type: physicochemical; settings: In water
[4] = Bioavailability study of API and salts of API in dogs; assay type: in vivo, beagle dogs; settings: single 100 mg oral dose
Experimental: For comparison, a microemulsion of the free base was also studied. The study was performed with 4 dogs, weighing 9-15 kg each. A crossover design with a washout period of at least 1 week was used. The dogs were given a single oral dose of 100 mg of test compound, administered under fasting conditions.

[5] = Intrinsic dissolution rate; assay type: physicochemical; settings: 37° C.
Experimental: The intrinsic dissolution rate measurements were carried out in 0.5 cm^2 VanKel die assemblies and a pellet pressure of 1 ton. The dissolution was measured using a Cary 50 spectrophotometer with a stirring rate of 200 rpm. The solution medium was held at 37° C. and measurements were made at 276 nm.

[6] = Thermogravimetry / loss on drying; assay type: physicochemical; settings: for Loss on drying by TG: As is, maleate
[7] = Stability: degradation products (DP) and appearance (color) under stress conditions; assay type: physicochemical; parameters: key to CL: A: No change of color; B: Slight discoloration; C: Medium discoloration; D: Strong discoloration; ↓: Suspension; *: Clear solution after stress test; —: no change; x: test not performed
Experimental: Column: Symmetry C18 (Waters), 3.5 μm, 3×150 mm
Mobile phase: A=0.1% TFA in water; B=acetonitrile
Gradient: 20 to 100% B in 10 minutes
Column temperature: 40° C.
Stability of the three salts with respect to color and degradation products were assessed under various conditions.

[8] = Polymorphism behavior: crystal modification after 24 hours equilibration; assay type: physicochemical
Experimental: A suspension of 6 mg of drug substance in 300 μl of solvent is prepared. Samples are agitated for ≧24 hour at 22° C.±2° C. The solids are collected and investigated for changes.

[9] = Effect of grinding on morphic properties; assay type: physicochemical
[10] = Hygroscopicity (sorption/desorption); assay type: physicochemical
Experimental: Sorption/desorption isotherms were measured using VTI vapor sorption device (DVS-1). Measurements were carried out at 25° C.

[11] = beagle, dog, plasma, fasting, mean and sd
[12] = 0.1% solutions or suspensions, 1 week 80° C. or 50° C., Methanol
[13] = 0.1% solutions or suspensions, 1 week 80° C. or 50° C., Water
[14] = 1-2 weeks 50° C., tight container, 1% in mixture 1
[15] = 1-2 weeks 50° C., tight container, 1% in mixture 2
[16] = 1-2 weeks 50° C./75% r.h., 1% in mixture 1
[17] = 1-2 weeks 50° C./75% r.h., 1% in mixture 2
[18] = Solid stage, 1 week 80° C., tight container, Bulk (HPLC)
[19] = Xenon light (approx. 1200 kLuxh), Bulk (HPLC)

solubility [1]: 10 µg/mL
solubility at 48 h [1]: 457 µg/mL
pH [1]: 2.079
SMILES: Cl.Cn1c(Nc2ccc(C(F)(F)F)cc2)nc2cc(Oc3ccnc(-c4ncc(C(F)(F)F)[nH]4)c3)ccc21 [Hydrochloride, {1-methyl-5-[2-(5-trifluoromethyl-1H-imidazol-2-yl)-pyridin-4-yloxy]-1H-benzoimidazol-2-yl}-(4-trifluoromethyl-phenyl)amine hydrochloride]

solubility [1]: 17 µg/mL
solubility at 48 h [1]: 96 µg/mL
pH [1]: 2.415
solubility ([2]; 0.1N HCl, 25 °C, simulated gastric fluid, read-out: Solubility (approx. at 25° C.) (HPLC)): 2300 µg/mL
solubility ([2]; acetonitrile, 25 °C, organic solvent or mixture, read-out: Solubility (approx. at 25° C.)): 4700 µg/mL
solubility ([2]; aqueous medium at pH 3, 25 °C, pH 3, aqueous buffer, read-out: Solubility (approx. at 25° C.) (HPLC)): 0.15 µg/mL
solubility ([2]; aqueous medium at pH 4.5, 25 °C, pH 4.5, aqueous buffer, read-out: Solubility (approx. at 25° C.) (HPLC)): 0.03 µg/mL
Solid ([2]; line after Water under Solubility): No change
solubility ([2]; methanol, 25 °C, organic solvent or mixture, read-out: Solubility (approx. at 25° C.)): > 50000 µg/mL
Measured pH ([2]; solubility sample at pH 3): 3.4
Measured pH ([2]; solubility sample in 0.1N HCl): 1.4
solubility ([2]; water, 25 °C, water, read-out: Solubility (approx. at 25° C.) (HPLC)): 10 µg/mL
pH of 1% solution or suspension [3]: 2.7
AUC(0-inf) [4, 11]: 29600 ± 5920 ng·h/mL
Cmax [4, 11]: 1220 ± 320 ng/mL
half-life [4, 11]: 18.8 ± 7.7 h
Tmax ([4]; beagle, dog, plasma, fasting, median): 4 h
Tlag ([4]; fasting, median): 0.12 h
Absolute F ([4]; relative to an iv dose of 1.25 mg/kg): 12.9 ± 2.6
Intrinsic dissolution rate ([5]; HCl 0.1N): 0.03 mg min^−1 cm^−2
Intrinsic dissolution rate ([5]; Water): 0.0076 mg min^−1 cm^−2
Loss on drying by TG ([6]; listed as maleate): 0.1%
Loss on drying by TG [6]: 0.11%
Thermogravimetry (weight loss in %) ([6]; Heating rate 20 K/min): 0.11%
CL [7, 12]: A
DP [7, 12]: 0.4%
CL [7, 13]: A↓
DP [7, 13]: 0.3%
CL [7, 14]: A
DP [7, 14]: 0.4%
CL [7, 15]: A
DP [7, 15]: 0.4%
CL [7, 16]: A
DP [7, 16]: 1.1%
CL [7, 17]: A
DP [7, 17]: 0.5%
Stability in methanol (in words) ([7]; In methanol): stable
CL [7, 18]: A
DP [7, 18]: 0.7%
DP ([7]; Solid state, 1 week 80° C./175% r.h, Bulk (HPLC)): 0.4%
CL ([7]; Solid state, 1 week 80° C./, Bulk (HPLC)): A
DP ([7]; Unstressed): 0.3%
CL [7, 19]: A
DP [7, 19]: 0.3%
Crystal modification after 24 hours equilibration (DSC/XRPD/TG) ([8]; 2-propanol): No change
Crystal modification after 24 hours equilibration (DSC/XRPD/TG) ([8]; Acetone): Change
Crystal modification after 24 hours equilibration (DSC/XRPD/TG) ([8]; Acetonitrile): Change
Crystal modification after 24 hours equilibration (DSC/XRPD/TG) ([8]; Ethanol): No change
Crystal modification after 24 hours equilibration (DSC/XRPD/TG) ([8]; Ethyl acetate): Change
Crystal modification after 24 hours equilibration (DSC/XRPD/TG) ([8]; Methanol): Change
Crystal modification after 24 hours equilibration (DSC/XRPD/TG) ([8]; PEG400): Change
Crystal modification after 24 hours equilibration (DSC/XRPD/TG) ([8]; Water): No change
Effect of grinding [9]: No change
Hygroscopicity from moisture sorption profiles (in words) [10]: slightly hygroscopic
Hygroscopicity: After 1 day at 80% r.h. ([10]; 80% r.h., 1 day, 25° C.): 0.8
Hygroscopicity: After 1 day at 95% r.h. ([10]; 95% r.h., 1 day, 25° C.): 1.1
SMILES: Cn1c(Nc2ccc(C(F)(F)F)cc2)nc2cc(Oc3ccnc(-c4ncc(C(F)(F)F)[nH]4)c3)ccc21.O=C(O)/C=C\C(=O)O [Maleate, {1-methyl-5-[2-(5-trifluoromethyl-1H-imidazol-2-yl)-pyridin-4-yloxy]-1H-benzoimidazol-2-yl}-(4-trifluoromethyl-phenyl)amine maleate]
Aqueous solubility (in words) ([2]; summary of Table 8): higher at low pH and lower in neutral conditions
